# Laboratory results published in US10729668B2, “Ketobutyrate compounds and compositions for treating age-related symptoms and diseases” (The Regents of the University of California, priority 2014, dated 2020).
# What was measured:
# C2C12 Cells [1] = assay: Oxygen consumption rate (OCR) in C2C12 cells, Seahorse XF-24; assay type: cell-based, mouse; conditions: 1 hour treatment
# Procedure: Measurement of oxygen consumption rates (OCR). OCR measurements were made using a Seahorse XF-24 analyzer (Seahorse Bioscience). C2C12 Cells were seeded in Seahorse XF-24 cell culture microplates at 30,000 cells per well in DMEM media supplemented with 10% FBS and 10 mM glucose, and incubated at 37° C. and 5% CO2 overnight. Treatment with α-KB or DMSO (vehicle control) was for 1 hour. Cells were washed in unbuffered DMEM medium (pH 7.4, 10 mM glucose) just before measurements, and maintained in this buffer with indicated concentrations of α-KB. OCR was measured three times under basal conditions and normalized to protein concentration per well.
# C2C12 Cells [2] = assay: Cellular ROS measurement with H2DCF-DA; assay type: cell-based, mouse; conditions: 3 hours of drug treatment
# Procedure: Measurement of ROS. C2C12 cells were seeded in 96-well plates at density of 250,000 cells/mL. Reactive oxygen species (ROS) levels were measured using 2′, 7′-dichlorodihydrofluorescein diacetate (H2DCF-DA) after 3 hours of drug treatment.
# NADH dehydrogenase = assay: Electron flow assay, isolated liver mitochondria; assay type: biochemical, mouse
# Procedure: Animal studies were performed under approved UCLA animal research protocols. Mitochondria from 3-month-old C57BL/6 mice were isolated. Briefly, livers were extracted, minced at 4° C. in MSHE+BSA (70 mM sucrose, 210 mM mannitol, 5 mM HEPES, 1 mM EGTA, and 0.5% fatty acid free BSA, pH 7.2), and rinsed several times to remove blood. All subsequent steps were performed on ice or at 4° C. The tissue was disrupted in 10 volumes of MSHE+BSA with a glass Dounce homogenizer (5-6 strokes) and the homogenate was centrifuged at 800×g for 10 minutes to remove tissue debris and nuclei. The supernatant was decanted through a cell strainer and centrifuged at 8,000×g for 10 minutes. […] Isolated mitochondrial respiration was measured by running coupling and electron flow assays as described. […] After basal readings, the sequential injections were as follows: 2 μM rotenone (Complex I inhibitor), 10 mM succinate (Complex II substrate), 4 μM antimycin A (Complex III inhibitor), and 10 mM/100 μM ascorbate/tetramethylphenylenediamine (Complex IV substrate). […]
smiles,measurement,setting,value
"CCC(=O)C(=O)O [α-KB, α-ketobutyrate]",basal respiration,C2C12 Cells [1],inhibited
same,maximal respiration (mitochondrial respiration upon FCCP treatment),C2C12 Cells [1],inhibited
same,cellular ROS,C2C12 Cells [2],increases the cellular ROS
same,respiration in electron flow assay,NADH dehydrogenase,only NADH dehydrogenase related respiration is inhibited
